According to the supplement of paper PMC10307832:

Columns and labels:
Assay in all cases: relative viability (nuclei count vs DMSO), 5 days (fraction); higher = more cells survive
H3255 = tested on: H3255
Method in brief: (§1)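 Relative viability is defined as nuclei in treated wells over nuclei in vehicle wells. Duplicate plates were run and medians reported. Lung cancer cell lines in 1536-well plates were dosed by pin tool one day after seeding, with one drug or with a fixed anchor-drug dose plus five library-drug doses (not always all listed) in √10 steps, and nuclei were counted after 5 days.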

SW 1573 = tested on: SW 1573
Method in brief: as §1

NCI-H1437 = tested on: NCI-H1437
Method in brief: as §1

LU99A = tested on: LU99A
Method in brief: as §1

201T = tested on: 201T
Method in brief: as §1

LCLC-97TM1 = tested on: LCLC-97TM1
Method in brief: as §1

PC-3 [JPC-3] = tested on: PC-3 [JPC-3]
Method in brief: as §1

NCI-H647 = tested on: NCI-H647
Method in brief: as §1

EPLC-272H = tested on: EPLC-272H
Method in brief: as §1

NCI-H2087 = tested on: NCI-H2087
Method in brief: as §1

NCI-H2342 = tested on: NCI-H2342
Method in brief: as §1

NCI-H358 = tested on: NCI-H358
Method in brief: as §1

HOP-62 = tested on: HOP-62
Method in brief: as §1

HCC-827 = tested on: HCC-827
Method in brief: as §1

NCI-H1666 = tested on: NCI-H1666
Method in brief: as §1

BEN = tested on: BEN
Method in brief: as §1

COR-L 105 = tested on: COR-L 105
Method in brief: as §1

NCI-H1395 = tested on: NCI-H1395
Method in brief: as §1

LOU-NH91 = tested on: LOU-NH91
Method in brief: as §1

EKVX = tested on: EKVX
Method in brief: as §1

NCI-H2085 = tested on: NCI-H2085
Method in brief: as §1

NCI-H1975 = tested on: NCI-H1975
Method in brief: as §1

O=C(O)c1ccc(-c2c[nH]c3ncc(-c4ccccc4)cc23)cc1C1CCCC1 + Cc1nc(Nc2ncc(C(=O)Nc3c(C)cccc3Cl)s2)cc(N2CCN(CCO)CC2)n1 [Dasatinib] (partner 0.075 µM)
relative viability (H3255; first compound 0.04 µM): 0.378
relative viability (H3255; first compound 0.1265 µM): 0.6
relative viability (H3255; first compound 0.4 µM): 0.348
relative viability (H3255; first compound 1.265 µM): 0.473
relative viability (SW 1573; first compound 0.04 µM): 0.398
relative viability (SW 1573; first compound 0.1265 µM): 0.542
relative viability (SW 1573; first compound 0.4 µM): 0.455
relative viability (SW 1573; first compound 1.265 µM): 0.392
relative viability (NCI-H1437; first compound 0.04 µM): 0.385
relative viability (NCI-H1437; first compound 0.1265 µM): 0.386
relative viability (NCI-H1437; first compound 0.4 µM): 0.374
relative viability (NCI-H1437; first compound 1.265 µM): 0.378
relative viability (LU99A; first compound 0.04 µM): 0.599
relative viability (LU99A; first compound 0.1265 µM): 0.748
relative viability (LU99A; first compound 0.4 µM): 0.626
relative viability (LU99A; first compound 1.265 µM): 0.448
relative viability (201T; first compound 0.04 µM): 0.58
relative viability (201T; first compound 0.1265 µM): 0.599
relative viability (201T; first compound 0.4 µM): 0.523
relative viability (201T; first compound 1.265 µM): 0.534
relative viability (LCLC-97TM1; first compound 0.04 µM): 0.836
relative viability (LCLC-97TM1; first compound 0.1265 µM): 0.893
relative viability (LCLC-97TM1; first compound 0.4 µM): 0.881
relative viability (LCLC-97TM1; first compound 1.265 µM): 0.686
relative viability (PC-3 [JPC-3]; first compound 0.04 µM): 0.981
relative viability (PC-3 [JPC-3]; first compound 0.1265 µM): 1.09
relative viability (PC-3 [JPC-3]; first compound 0.4 µM): 1.07
relative viability (PC-3 [JPC-3]; first compound 1.265 µM): 0.973
relative viability (NCI-H647; first compound 0.04 µM): 0.172
relative viability (NCI-H647; first compound 0.1265 µM): 0.24
relative viability (NCI-H647; first compound 0.4 µM): 0.178
relative viability (NCI-H647; first compound 1.265 µM): 0.139
relative viability (EPLC-272H; first compound 0.04 µM): 0.331
relative viability (EPLC-272H; first compound 0.1265 µM): 0.416
relative viability (EPLC-272H; first compound 0.4 µM): 0.328
relative viability (EPLC-272H; first compound 1.265 µM): 0.337
relative viability (NCI-H2087; first compound 0.04 µM): 0.752
relative viability (NCI-H2087; first compound 0.1265 µM): 0.778
relative viability (NCI-H2087; first compound 0.4 µM): 0.896
relative viability (NCI-H2087; first compound 1.265 µM): 0.661
relative viability (NCI-H2342; first compound 0.04 µM): 0.34
relative viability (NCI-H2342; first compound 0.1265 µM): 0.377
relative viability (NCI-H2342; first compound 0.4 µM): 0.325
relative viability (NCI-H2342; first compound 1.265 µM): 0.289
relative viability (NCI-H358; first compound 0.04 µM): 0.143
relative viability (NCI-H358; first compound 0.1265 µM): 0.209
relative viability (NCI-H358; first compound 0.4 µM): 0.209
relative viability (NCI-H358; first compound 1.265 µM): 0.152
relative viability (HOP-62; first compound 0.04 µM): 0.598
relative viability (HOP-62; first compound 0.1265 µM): 0.669
relative viability (HOP-62; first compound 0.4 µM): 0.78
relative viability (HOP-62; first compound 1.265 µM): 0.666
relative viability (HCC-827; first compound 0.04 µM): 0.339
relative viability (HCC-827; first compound 0.1265 µM): 0.294
relative viability (HCC-827; first compound 0.4 µM): 0.348
relative viability (HCC-827; first compound 1.265 µM): 0.381
relative viability (NCI-H1666; first compound 0.04 µM): 0.858
relative viability (NCI-H1666; first compound 0.1265 µM): 0.928
relative viability (NCI-H1666; first compound 0.4 µM): 0.832
relative viability (NCI-H1666; first compound 1.265 µM): 0.501
relative viability (BEN; first compound 0.04 µM): 0.291
relative viability (BEN; first compound 0.1265 µM): 0.374
relative viability (BEN; first compound 0.4 µM): 0.358
relative viability (BEN; first compound 1.265 µM): 0.291
relative viability (COR-L 105; first compound 0.04 µM): 0.318
relative viability (COR-L 105; first compound 0.1265 µM): 0.376
relative viability (COR-L 105; first compound 0.4 µM): 0.383
relative viability (COR-L 105; first compound 1.265 µM): 0.391
relative viability (NCI-H1395; first compound 0.04 µM): 0.392
relative viability (NCI-H1395; first compound 0.1265 µM): 0.396
relative viability (NCI-H1395; first compound 0.4 µM): 0.365
relative viability (NCI-H1395; first compound 1.265 µM): 0.426
relative viability (LOU-NH91; first compound 0.04 µM): 0.573
relative viability (LOU-NH91; first compound 0.1265 µM): 0.667
relative viability (LOU-NH91; first compound 0.4 µM): 0.508
relative viability (LOU-NH91; first compound 1.265 µM): 0.577
relative viability (EKVX; first compound 0.04 µM): 0.547
relative viability (EKVX; first compound 0.1265 µM): 0.512
relative viability (EKVX; first compound 0.4 µM): 0.564
relative viability (EKVX; first compound 1.265 µM): 0.675
relative viability (NCI-H2085; first compound 0.04 µM): 0.259
relative viability (NCI-H2085; first compound 0.1265 µM): 0.268
relative viability (NCI-H2085; first compound 0.4 µM): 0.307
relative viability (NCI-H2085; first compound 1.265 µM): 0.247
relative viability (NCI-H1975; first compound 0.04 µM): 0.446
relative viability (NCI-H1975; first compound 0.1265 µM): 0.356
relative viability (NCI-H1975; first compound 0.4 µM): 0.408
relative viability (NCI-H1975; first compound 1.265 µM): 0.376
